Data: US20200352931A1, “OXALAMIDES AS MODULATORS OF INDOLEAMINE 2,3-DIOXYGENASE” (PHENEX DISCOVERY VERWALTUNGS-GMBH, priority 2017, published 2020)

Biological target: T1, Indoleamine 2,3-Dioxygenase (IDO1) in SKOV-3 cells (Homo sapiens, UniProt P14902)
T1 construct: endogenous in cells; host or cells: SKOV-3 (ATCC HTB-77), stimulated with 50 ng/ml interferon gamma
Experiment: SKOV-3 cellular indoleamine 2,3-dioxygenase assay
Settings: 50 ng/ml Interferon gamma, 100 μM L-Tryptophan, 24 hours, N-Formylkynurenin fluorescence, read-out: cell based activity (IC50)
Description: SKOV-3 Cellular Indoleamine 2,3-Dioxygenase Assay
SKOV-3 cells were obtained from the American Type Culture Collection (ATCC® HTB-77™) and maintained in McCoy's medium (Pan Biotech) supplemented with 10% fetal bovine serum and 1% Penicilin/Streptomycin. Cells were kept at 37° C. in a humidified incubator with 5% CO2. For assay preparation, cells were seeded at a density of 2*10^5/m into black clear bottom 96 well plates in 100 μl medium/well supplemented with 50 ng/ml Interferon gamma (eBioscience, Thermo Fisher Scientific). After cells fully adhered to the plate, dilution series of compounds were added in medium containing additional L-Tryptophan to a final L-Tryptophan concentration of 100 μM. The cells were incubated for 24 hours. Detection of produced N-Formylkynurenin was performed by addition of 3-Methylpiperidine to a final concentration of 200 mM. The plates were sealed and heated to 65° C. for 20 minutes in a water bath. After cooling the fluorescence of each well was recorded with a Victor™ X4 (PerkinElmer) plate reader at an emission wavelength of 535 nm and excitation at 405 nm (Tomek et al.; Anal Bioanal Chem (2013) 405:2515-2524., Tomek et al.; Biochim Biophys Acta. 2015 September; 1850(9):1772-80).

T1 sequence (P14902 whole entry): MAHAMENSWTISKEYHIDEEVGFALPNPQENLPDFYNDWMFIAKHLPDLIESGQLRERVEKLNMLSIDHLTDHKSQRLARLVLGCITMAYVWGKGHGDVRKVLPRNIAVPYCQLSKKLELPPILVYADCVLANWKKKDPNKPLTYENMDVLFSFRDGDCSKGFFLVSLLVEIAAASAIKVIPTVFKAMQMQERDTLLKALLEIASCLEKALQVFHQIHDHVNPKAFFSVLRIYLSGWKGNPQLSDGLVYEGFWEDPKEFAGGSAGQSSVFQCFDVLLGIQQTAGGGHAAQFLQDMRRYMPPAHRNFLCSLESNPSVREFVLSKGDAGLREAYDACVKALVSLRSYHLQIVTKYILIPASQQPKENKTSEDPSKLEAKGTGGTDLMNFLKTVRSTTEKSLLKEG

IC50 [nM] | Compound
< 100 | O=C(Nc1ccc(Cl)cc1)C(=O)N1CCC2(CC1)COc1cc(C(F)F)ccc12 [Example 101, N-(4-Chlorophenyl)-2-(6-(difluoromethyl)-2H-spiro[benzofuran-3,4′-piperidin]-1′-yl)-2-oxoacetamide]
100 to 1000 | O=C(NC1Cc2ccccc2C1)C(=O)N1CCC(c2ccnc3ccc(F)cc23)CC1 [5/7]
> 1000 | O=C(Nc1ccc(Cl)cn1)C(=O)N1CCC(c2ccc(C(=O)O)c3ccccc23)CC1 [Example 9, 4-(1-(2-((5-Chloropyridin-2-yl)amino)-2-oxoacetyl)piperidin-4-yl)-1-naphthoic Acid]
> 1000 | O=C(Nc1ccc(C(F)(F)F)cn1)C(=O)N1CCC(c2ccccc2Cc2ccccc2)CC1 [6/1]
< 100 | O=C(Nc1ccc(Cl)cc1)C(=O)N1CCC(c2ccnc3ccc(Cl)cc23)CC1 [1/47]
